Measured values from US9499550B2 (BRISTOL-MYERS SQUIBB COMPANY, priority 2012, dated 2016).
Read-outs that look alike come from different tables or passages of the source.

Legend:
[1] = test system: HCV genotype 1b (Con1) replicon in HUH-7 cells; experiment: HCV replicon luciferase reporter assay, genotype 1b; format: cell-based; details: Hepatitis C virus, Huh-7, 72 h, HCV genotype 1b replicon luciferase, 3 days incubation
How it was run: (§1)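 Replicon inhibition for both genotypes was measured as Renilla luciferase signal (EnduRen, 7.5 μM final, 2 h) after 3-day, 37° C exposure of replicon-bearing HUH-7 cells in 4% FCS DMEM, 0.5% DMSO. The 1b construct carries S1179I; the 1a H77 construct carries P1496L and S2204I. Twenty-point, 3-fold dilutions were fitted four-parametrically for EC50, and CC50 was taken from multiplexed Cell Titer-Blue.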

[2] = test system: HCV genotype 1a (H77 strain) replicon in HUH-7 cells; experiment: HCV replicon luciferase reporter assay, genotype 1a; format: cell-based; details: Hepatitis C virus, Huh-7, 72 h, HCV genotype 1a replicon luciferase, 3 days incubation
How it was run: as §1

SMILES	EC50 ([1]; read-out: LE_1b (EC50, range))	EC50 ([2]; read-out: LE_1a (EC50, range))	EC50 ([1]; read-out: LE_1b (EC50))	EC50 ([2]; read-out: LE_1a (EC50))
C[C@H]1CC/C=C\[C@@H]2C[C@@]2(C(=O)NS(=O)(=O)C2CC2)NC(=O)[C@@H]2C[C@@H](Oc3nccc4c5c(ccc34)N(C)CCO5)CN2C(=O)[C@@H](NC(=O)OC(C)(C)C(F)(F)F)[C@H](C)C1 [Compound 5277, 1,1,1-trifluoro-2-methylpropan-2-yl((2R,6S,7R,9S,13aS,14aR,16aS,Z)-14a-((cyclopropylsulfonyl)carbamoyl)-7,9-dimethyl-2-((4-methyl-3,4-dihydro-2H-[1,4]oxazino[2,3-f]isoquinolin-7-yl)oxy)-5,16-dioxo-1,2,3,5,6,7,8,9,10,11,13a,14,14a,15,16,16a-hexadecahydrocyclopropa[e]pyrrolo[1,2-a][1,4]diazacyclopentadecin-6-yl)carbamate]	< 5.46 nM	< 5.46 nM		
C[C@@H]1CC/C=C\[C@@H]2C[C@@]2(C(=O)NS(=O)(=O)C2CC2)NC(=O)[C@@H]2C[C@@H](Oc3nccc4c5c(ccc34)N(C)CCO5)CN2C(=O)[C@@H](NC(=O)OC(C)(C)C(F)(F)F)[C@H](C)C1 [Compound 5278, 1,1,1-trifluoro-2-methylpropan-2-yl((2R,6S,7R,9R,13aS,14aR,16aS,Z)-14a-((cyclopropylsulfonyl)carbamoyl)-7,9-dimethyl-2-((4-methyl-3,4-dihydro-2H-[1,4]oxazino[2,3-f]isoquinolin-7-yl)oxy)-5,16-dioxo-1,2,3,5,6,7,8,9,10,11,13a,14,14a,15,16,16a-hexadecahydrocyclopropa[e]pyrrolo[1,2-a][1,4]diazacyclopentadecin-6-yl)carbamate]	< 5.46 nM	< 5.46 nM		
[2H]C([2H])([2H])C(OC(=O)N[C@@H]1C(=O)N2C[C@H](Oc3nccc4c5c(ccc34)N(C)CCO5)C[C@H]2C(=O)N[C@]2(C(=O)NS(=O)(=O)C3CC3)C[C@H]2/C=C\CC[C@H](C)C[C@H]1C)(C([2H])([2H])[2H])C(F)(F)F [Compound 5279, 1,1,1,3,3,3-hexadeutero-2-(trifluoromethyl)propan-2-yl((2R,6S,7R,9S,13aS,14aR,16aS,Z)-14a-((cyclopropylsulfonyl)carbamoyl)-7,9-dimethyl-2-((4-methyl-3,4-dihydro-2H-[1,4]oxazino[2,3-f]isoquinolin-7-yl)oxy)-5,16-dioxo-1,2,3,5,6,7,8,9,10,11,13a,14,14a,15,16,16a-hexadecahydrocyclopropa[e]pyrrolo[1,2-a][1,4]diazacyclopentadecin-6-yl)carbamate]	4.82 to 103 nM	4.82 to 103 nM		
[2H]C([2H])([2H])C(OC(=O)N[C@@H]1C(=O)N2C[C@H](Oc3nccc4c5c(ccc34)N(C)CCO5)C[C@H]2C(=O)N[C@]2(C(=O)NS(=O)(=O)C3CC3)C[C@H]2/C=C\CC[C@@H](C)C[C@H]1C)(C([2H])([2H])[2H])C(F)(F)F [Compound 5280, 1,1,1,3,3,3-hexadeutero-2-(trifluoromethyl)propan-2-yl((2R,6S,7R,9R,13aS,14aR,16aS,Z)-14a-((cyclopropylsulfonyl)carbamoyl)-7,9-dimethyl-2-((4-methyl-3,4-dihydro-2H-[1,4]oxazino[2,3-f]isoquinolin-7-yl)oxy)-5,16-dioxo-1,2,3,5,6,7,8,9,10,11,13a,14,14a,15,16,16a-hexadecahydrocyclopropa[e]pyrrolo[1,2-a][1,4]diazacyclopentadecin-6-yl)carbamate]	< 5.46 nM	< 5.46 nM		
C[C@H]1CC/C=C\[C@@H]2C[C@@]2(C(=O)NS(=O)(=O)C2CC2)NC(=O)[C@@H]2C[C@@H](Oc3nccc4c5c(ccc34)N(C)CCO5)CN2C(=O)[C@@H](NC(=O)OC(C)(C)C(C)(F)F)[C@H](C)C1 [Compound 5281, 3,3-difluoro-2-methylbutan-2-yl((2R,6S,7R,9S,13aS,14aR,16aS,Z)-14a-((cyclopropylsulfonyl)carbamoyl)-7,9-dimethyl-2-((4-methyl-3,4-dihydro-2H-[1,4]oxazino[2,3-f]isoquinolin-7-yl)oxy)-5,16-dioxo-1,2,3,5,6,7,8,9,10,11,13a,14,14a,15,16,16a-hexadecahydrocyclopropa[e]pyrrolo[1,2-a][1,4]diazacyclopentadecin-6-yl)carbamate]	< 5.46 nM	< 5.46 nM		
C[C@@H]1CC/C=C\[C@@H]2C[C@@]2(C(=O)NS(=O)(=O)C2CC2)NC(=O)[C@@H]2C[C@@H](Oc3nccc4c5c(ccc34)N(C)CCO5)CN2C(=O)[C@@H](NC(=O)OC(C)(C)C(C)(F)F)[C@H](C)C1 [Compound 5282, 3,3-difluoro-2-methylbutan-2-yl((2R,6S,7R,9R,13aS,14aR,16aS,Z)-14a-((cyclopropylsulfonyl)carbamoyl)-7,9-dimethyl-2-((4-methyl-3,4-dihydro-2H-[1,4]oxazino[2,3-f]isoquinolin-7-yl)oxy)-5,16-dioxo-1,2,3,5,6,7,8,9,10,11,13a,14,14a,15,16,16a-hexadecahydrocyclopropa[e]pyrrolo[1,2-a][1,4]diazacyclopentadecin-6-yl)carbamate]	< 5.46 nM	< 5.46 nM		
C[C@H]1CC/C=C\[C@@H]2C[C@@]2(C(=O)NS(=O)(=O)C2CC2)NC(=O)[C@@H]2C[C@@H](Oc3nccc4c5c(ccc34)N(C)CCO5)CN2C(=O)[C@@H](NC(=O)NC(C)(C)C)[C@H](C)C1 [Compound 5283, (2R,6S,7R,9S,13aS,14aR,16aS,Z)-6-(3-(tert-butyl)ureido)-N-(cyclopropylsulfonyl)-7,9-dimethyl-2-((4-methyl-3,4-dihydro-2H-[1,4]oxazino[2,3-f]isoquinolin-7-yl)oxy)-5,16-dioxo-1,2,3,5,6,7,8,9,10,11,13a,14,14a,15,16,16a-hexadecahydrocyclopropa[e]pyrrolo[1,2-a][1,4]diazacyclopentadecine-14a-carboxamide]	< 5.46 nM	< 5.46 nM	3.12 nM	4.82 nM
C[C@@H]1CC/C=C\[C@@H]2C[C@@]2(C(=O)NS(=O)(=O)C2CC2)NC(=O)[C@@H]2C[C@@H](Oc3nccc4c5c(ccc34)N(C)CCO5)CN2C(=O)[C@@H](NC(=O)NC(C)(C)C)[C@H](C)C1 [Compound 5284, (2R,6S,7R,9R,13aS,14aR,16aS,Z)-6-(3-(tert-butyl)ureido)-N-(cyclopropylsulfonyl)-7,9-dimethyl-2-((4-methyl-3,4-dihydro-2H-[1,4]oxazino[2,3-f]isoquinolin-7-yl)oxy)-5,16-dioxo-1,2,3,5,6,7,8,9,10,11,13a,14,14a,15,16,16a-hexadecahydrocyclopropa[e]pyrrolo[1,2-a][1,4]diazacyclopentadecine-14a-carboxamide]	< 5.46 nM	< 5.46 nM		
[2H]C([2H])([2H])C(C)(OC(=O)N[C@@H]1C(=O)N2C[C@H](Oc3nccc4c5c(ccc34)N(C)CCO5)C[C@H]2C(=O)N[C@]2(C(=O)NS(=O)(=O)C3CC3)C[C@H]2/C=C\CC[C@H](C)C[C@H]1C)C([2H])([2H])[2H] [Compound 5285, 1,1,1,3,3,3-hexadeutero-2-methylpropan-2-yl((2R,6S,7R,9S,13aS,14aR,16aS,Z)-14a-((cyclopropylsulfonyl)carbamoyl)-7,9-dimethyl-2-((4-methyl-3,4-dihydro-2H-[1,4]oxazino[2,3-f]isoquinolin-7-yl)oxy)-5,16-dioxo-1,2,3,5,6,7,8,9,10,11,13a,14,14a,15,16,16a-hexadecahydrocyclopropa[e]pyrrolo[1,2-a][1,4]diazacyclopentadecin-6-yl)carbamate]	< 5.46 nM	4.82 to 103 nM		
